This experiment concerns Nucleic Acid. The experiment is described as follows: Binding affinity towards calf thymus DNA was determined. Format: nucleic-acid assay. Particulars: Bos taurus.
The compound `NCCN(CCNC(=O)Cc1c[nH]cn1)CCNC(=O)c1c2ccccc2nc2ccccc12` registered a K of 22000 M⁻¹.

`NCCC(=O)NCCN(CCNC(=O)Cc1c[nH]cn1)CCNC(=O)c1c2ccccc2nc2ccccc12`: the K was 16000 M⁻¹.

Consider `NCCN(CCN)CCNC(=O)c1c2ccccc2nc2ccccc12`, for which the K amounted to 150000 M⁻¹.

The record behind these values is ChEMBL document CHEMBL1127951, “Synthesis and RNA cleaving activities of polyamine derived novel artificial ribonuclease” (Bioorg Med Chem Lett, 1994).
